This note sets out measurements from patent publication US11986482B2, “Method of promoting antitumor or anti-cancer immunity” (City University of Hong Kong, priority 2021, dated 2024).

Entries after “also recorded” stand apart in the source; their conditions may differ.

The subject of assay [1] is PD-L1. Briefly: PD-L1 internalization assay (surface anti-PD-L1 antibody labelling, Rab5 colocalization) in HeLa cells. The class given is cell-based. To be noted: HeLa cells pretreated 3 h; Pitstop2 30 uM, Filipin III 5 mg/mL. Here is the method:
Without intending to be limited by theory, it is believed that the endosomal trafficking of PD-L1, a type I membrane protein, remains poorly studied thus far. In the fixed HeLa cells stained with anti-PD-L1 antibody, HeLa cells are plated on coverslips in 24-well plates and fixed after 24 h. Cells are then co-stained with antibodies against PD-L1 and Rab5, LAMP1, CD63, Rab27A, Rab11. […] Thus, inventors speculate that PD-L1 at the cell surface may be subjected to an active endosomal trafficking process. To monitor the PD-L1's endosomal trafficking process, inventors label the PD-L1 at the cell surface in the live cells with an anti-PD-L1 antibody on ice for 1 h. They then incubate the cells with the warm medium at 37° C. for the indicated times to initiate the internalization of the PD-L1 antibody complex, followed by the immunostaining of RAB5, EEA1, LAMP1, or RAB11. […] In addition, HeLa cells are pretreated with Fillilin III (5 mg/mL) or Pistop2 (30 uM) for 3 h, then stained with the anti-PD-L1 antibody on ice for 1 h. At the indicated times after being incubated with a warm medium at 37° C., the cells are fixed and stained with an anti-Rab5 antibody. […] Furthermore, Rab5-knockout HeLa cells are transfected with CD63-mcherry and stained with the anti-PD-L1 antibody on ice for 1 h. After being incubated for 1.5 h in a warm medium at 37° C., the cells are fixed and imaged.

Assay [2] relates to PD-L1. Briefly: Plasma membrane PD-L1 level in 4T1 cells (flow cytometry). The class given is cell-based, mouse. To be noted: 4T1 cells, GW4869 10 μM with 6J1 1 μM. Here is the method:
(§1) The current PD-L1 and PD1 therapies apply PD-L1 or PD1 monoclonal antibodies to block the PD-L1/PD1 signaling, which results in cytotoxic T cells recognizing and killing the tumor cells. […] First, flow cytometry-based quantification of plasma membrane levels of PD-L1 in 4T1 cells treated with or without 6J1 (1 μM) for 24 h. 4T1 cells are treated with or without 6J1 (1 μM) for 24 h. The supernatant is collected, and the concentration of extracellular vesicle is determined using a Nanosight nanoparticle analyzer in FIG. 8b. The exosomes are also collected and subjected to western blot analysis of the EVs marker and PD-L1 in FIG. 8c.
Therefore, it is possible that the increased exosomal PD-L1 secretion induced by 6J1 may still suppress the tumor-infiltrating T cell cytotoxicity in vivo, even though 6J1 reduces the cell surface expression level of PD-L1 on the tumor cells. To evaluate the role of exosomal PD-L1 in the tumor microenvironment and tumor progression in mice, inventors knock out Rab27a in 4T1 cells to inhibit the secretion of exosomes. 4T1-shNC or 4T1-shRab27A cells are treated with or without 6J1 (1 μM). The supernatant is collected, and the concentration of extracellular vesicle is determined using a Nanosight nanoparticle analyzer. […] Inventors analyze the plasma membrane levels of PD-L1 in 4T1-shNC or 4T1-shRab27A cells treated with or without 6J1 (1 μM). […] Next, control or Rab27a-knockout 4T1 cells are orthotopically transplanted into syngeneic fat pads of female Balb/c. The mice are randomly divided (n=5 per group) and treated with either buffer or 6J1 (30 mg/kg, daily) via oral gavage. […] Inventors also perform the immunostaining of CD8 and Granzyme B in the tumor sections. […] Since enhanced antitumor immunity leads to increased apoptosis in tumors, inventors assess the levels of cleaved caspase3 (CCA3), one of the markers of apoptosis, in tumor sections as well.
Finally, inventors assess the combinatory effects of 6J1 with GW4869, an exosome secretion inhibitor, in the aforementioned orthotopic mammary carcinoma mouse models. […]

The next assay concerns 4T1 cells. Briefly: Extracellular vesicle concentration, Nanosight nanoparticle analyzer, 4T1 cells. The assay is classed as cell-based, mouse. To be noted: 4T1 cells, GW4869 10 μM with 6J1 1 μM. Here is the method:
as §1
To assess whether the in vivo antitumor growth effect of 6J1 is related to its effect on PD-L1 in 4T1 cells, inventors knock out PD-L1 via CRISPR/Cas9 in 4T1 cells (FIG. 10a). 4T1-NC or 4T1-PD-L1 knockout cells are treated with or without 6J1 (1 μM) for 24 h. The supernatant is collected, and the concentration of extracellular vesicle is determined using a Nanosight nanoparticle analyzer. The exosomes are also collected and subjected to western blot analysis of the EVs marker and PD-L1. […] Inventors then transplant control or PD-L1-knockout 4T1 cells into the fat pad of syngeneic female Balb/c mice. The mice are randomly divided (n=5 per group) and treated with either buffer or 6J1 (30 mg/kg, daily) via oral gavage.
Therefore, it is possible that the increased exosomal PD-L1 secretion induced by 6J1 may still suppress the tumor-infiltrating T cell cytotoxicity in vivo, even though 6J1 reduces the cell surface expression level of PD-L1 on the tumor cells. To evaluate the role of exosomal PD-L1 in the tumor microenvironment and tumor progression in mice, inventors knock out Rab27a in 4T1 cells to inhibit the secretion of exosomes. 4T1-shNC or 4T1-shRab27A cells are treated with or without 6J1 (1 μM). The supernatant is collected, and the concentration of extracellular vesicle is determined using a Nanosight nanoparticle analyzer. […] Inventors analyze the plasma membrane levels of PD-L1 in 4T1-shNC or 4T1-shRab27A cells treated with or without 6J1 (1 μM). […]

Assay [3] deals with PD-L1. Briefly: Western blot of PD-L1 in total cell lysates and exosomes of HeLa cells. To be noted: HeLa cells, 48 h, Bafilomycin A1 10 nM, Torin 1 100 nM; for exosomal PD-L1 level: ionomycin 1 μM, 6J1 1 μM. The assay is classed as cell-based. The method, then: PD-L1 has been previously shown to be secreted outside the cell through exosomes. HeLa cells are plated on coverslips in 24-well plates and stained with the anti-PD-L1 antibody on ice for 1 h. At the indicated times after being incubated at a warm medium at 37° C., cells are fixed and stained with antibodies against CD63 or Rab27a. […] Cells are treated with or without ionomycin (1 μM) for 48 h. The supernatant is collected and subjected to western blot analysis. […] Since the amphisome, which is formed by the fusion of the autophagosome with the MVB/late endosome, has been implicated in extracellular vesicles secretion, and PD-L1 is found to be associated with LC3B during PD-L1 trafficking (FIG. 2a), inventors examine whether the autophagosome formation is involved in exosomal PD-L1 secretion. Thus, inventors knock out the expression of Rab27A, LC3B or ATG4B in HeLa cells and collect their supernatant respectively for western blot analysis.
Furthermore, HeLa cells are treated with or without Bafilomycin A1 (10 nM), or Torin 1 (100 nM) for 48 h. The cell lysates and supernatant are collected for western blot analysis. […] In contrast, Torin1, an autophagy activator, has little effect on total and exosomal PD-L1 levels (FIG. 2g). […] On the other hand, blockage on the fusion between lysosomes and late endosomes or autophagosomes may induce PD-L1 secretion via exosomes.
It has previously been shown that interfering with endosomal trafficking promotes exosome secretion. Moreover, PD-L1 has been reported to be enriched in exosomes and secreted outside the cell. Thus, inventors speculate that 6J1 may induce the secretion of the PD-L1 trapped in the endosomal compartments via exosomes. To determine whether 6J1 may induce the secretion of PD-L1 via exosomes, HeLa cells are treated with or without 6J1 (1 μM) for 24 h. The supernatant is collected. Inventors purify the exosomes from the supernatant of HeLa cells by sequential centrifugation. The concentration of extracellular vesicle is determined using a Nanosight nanoparticle analyzer. And HeLa cells are treated with or without 6J1 (1 μM) for 48 h. The cell and supernatant are collected for Western Blot analysis. […] Moreover, the activity of Rab27a in HeLa cells treated with or without 6J1 (1 μM) is examined with a GST-SHD pulldown assay.
Moreover, ATG5- or LC3-knockout HeLa cells are treated with or without 6J1 (1 μM) for 24 h. The supernatant is collected, and the concentration of the extracellular vesicle is determined using a Nanosight nanoparticle analyzer. The exosomes are also collected and subjected to western blot analysis of the EVs marker and PD-L1 in FIG. 7a. The live cells are also labeled with an anti-PD-L1 antibody in FIG. 7b and subjected to flow cytometry analysis in FIG. 7c. […] In addition, inventors assess whether other autophagy-related genes, e.g., ATG4B, ATG7, Beclin1, and Vps34 are involved in 6J1-mediated exosomal PD-L1 secretion. ATG4B-, ATG7-, Beclin1-, or VPS34-knockout HeLa cells are treated with or without 6J1 (1 μM) for 24 h. The supernatant is collected, and the concentration of extracellular vesicle is determined using a Nanosight nanoparticle analyzer. The exosomes are also collected and subjected to western blot analysis of the EVs marker and PD-L1 in FIG. 7d. The live cells are also labeled with an anti-PD-L1 antibody and subjected to flow cytometry analysis in FIG. 7e.

In the case of `CCCCC[C@@H](O)[C@H]1C(=O)O[C@H](C)[C@@H](O)/C=C/C=C/C=C/C=C/C=C(\C)[C@@H](O)C[C@H](O)C[C@H](O)C[C@H](O)C[C@H](O)C[C@H](O)C[C@@H]1O` [Filipin III], the “internalization of PD-L1” value in the assay with PD-L1 [1] is given as “does not affect the internalization of PD-L1”. As for `O=C(C=Cc1ccc(C=CC(=O)Nc2ccc(C3=NCCN3)cc2)cc1)Nc1ccc(C2=NCCN2)cc1` [GW4869, reference compound], in the assay on PD-L1 [2], the “effect of GW4869 on 6J1-mediated reduction of cell surface PD-L1” value is “does not impair 6J1-mediated reduction of cell surface PD-L1”. For the same compound, the “effect of GW4869 on 6J1-induced exosome secretion” value in the assay with 4T1 cells is “inhibits exosome secretion of 4T1 cells induced by 6J1”.

Regarding `O=C1NC(=NS(=O)(=O)c2cccc3ccccc23)S/C1=C\c1ccc(Br)cc1` [Pitstop2], in the assay on PD-L1 [1], the “internalization of PD-L1” value is given as “blocks the internalization of PD-L1”. Consider `CCC(=O)N1CCN(c2ccc(-n3c(=O)ccc4cnc5ccc(-c6cnc7ccccc7c6)cc5c43)cc2C(F)(F)F)CC1` [Torin1], for which, in the assay with PD-L1 [3], the “total PD-L1 level in cells” value is “little effect” and the “exosomal PD-L1 level” value was “little effect”. As for `CO/C1=C\C(C)=C\[C@@H](C)[C@@H](O)[C@@H](C)C/C(C)=C/C=C/[C@H](OC)[C@@H]([C@@H](C)[C@@H](O)[C@H](C)[C@@]2(O)C[C@@H](O)[C@H](C)[C@@H](C(C)C)O2)OC1=O` [bafilomycin A1], in the assay on PD-L1 [3], the “total PD-L1 level in cells” value was “markedly increases” and the “exosomal PD-L1 level” value was “markedly increases”.

Turning to `C[C@H](CCC(=O)O)C[C@H](C)C[C@H](C)C(=O)/C=C(\O)[C@H](C)C[C@H](C)C/C=C/[C@@H](C)[C@@H](O)[C@@H](C)[C@@H](O)C[C@@H]1CC[C@@](C)([C@H]2CC[C@@](C)([C@@H](C)O)O2)O1` [ionomycin], the “exosomal PD-L1 level” value with PD-L1 [3] is on record as “markedly increases the exosomal PD-L1 level; also recorded: markedly increased exosomal PD-L1 level”.
